The target in assay [1] is T1, ATP hydrolytic activity of sub-mitochondrial particles (SMPs), mitochondrial F1Fo-ATPase (Bos taurus, UniProt P13621).
T1 construct: from tissue; host or cells: sub-mitochondrial particles (SMPs)
As to the kind of experiment: NADH-coupled kinetics assay of ATP hydrolysis by sub-mitochondrial particles. In kind it is biochemical, bovine. The settings on record: for Ki: non-competitive (mixed) model; for Km / Vmax: three-dimensional fit. Here is the method: The mechanism of inhibition for ATP hydrolysis induced by Bz-423 and derivatives of Bz-423 was assayed using an NADH-coupled assay. The ATP hydrolytic activity of the sub-mitochondrial particles (hereinafter SMPs) was measured by coupling the production of ADP to the oxidation of NADH via the pyruvate kinase and lactate dehydrogenase reaction. Briefly, ATP hydrolysis SMPs (0.8 mg; 7.14 μg/well) were added to hydrolysis buffer (100 mM Tris-HCl, pH 8.0 at 25° C., 4 mM MgCl2, […], 0.2 mM EDTA) and vortexed. 125 μL of this suspension was added to each well of a 96-well plate containing 50× drug or DMSO vehicle control (1% DMSO, final). The 96-well plate was then placed at 30° C. in a Molecular Devices Versamax tunable microplate reader and allowed to incubate for 5 min. During this 5 min, a substrate-coupling mixture was prepared (containing X mM ATP, 0.2 mM NADH, 1 mM phosphoenolpyruvate (PEP), 2 U/mL pyruvate kinase (PK), and 2 U/mL lactate dehydrogenase (LDH) in hydrolysis buffer). The rate of hydrolysis was assayed over a range of ATP concentrations (0.1-4.0 mM) at each [Bz]. 125 μL of the substrate-coupling mixture was added to each well, and the rate of NADH oxidation was monitored for 10 min at 340 nm, 30° C. The measured decrease in absorbance over time (in OD/min) was converted to μmol ATP hydrolyzed/min/mg SMP (ε=6220). The velocity data was plotted versus [ATP] for each concentration of [Bz] (e.g., 1-8 μM) (see, e.g., FIG. 1) and then fit to the Michaelis-Menten equation:
m1*m0/(1+m0/m2) • where m1=Vmax/Km and m2=Km The apparent kinetic parameters for each [Bz] were obtained from these curve fits to generate secondary plots of [Bz] versus Vmax, [Bz] versus Km, and [Bz] versus Vmax/Km (see, e.g., FIG. 2). The o-tert-Butyl derivative, shown below,
To obtain Ki values and confirm that an uncompetitive model of inhibition was the best fit for the data, three-dimensional fits of the velocity, [ATP], and [Bz] were performed to solve for Vmax, Km, Ki, and Ki* [where Ki indicates Bz binding to the ATPase with the third catalytic site empty (mixed-type inhibition only), and Ki* indicates binding when all three sites have substrate bound (uncompetitive and mixed-type inhibition)]. The following equations were used:
Vo=Vmax[S]/((1+[I]/Ki)Km+[S])
Vo=Vmax[S]/((1+[I]/Ki*) [S]+Km)
Vo=Vmax[S]/((1+[I]/Ki)Km+(1+[I]Ki*)[S])

The target in the next assay is F1Fo-ATPase. The settings on record: cited from earlier work.
[2] abbreviates: binding with third catalytic site empty.
Setting [3] is: non-competitive (mixed) inhibition model.

Like-named read-outs stand apart in the source and are kept apart here.

In the case of `CN1C(=O)C(Cc2ccc3ccccc3c2)N=C(c2ccc(O)cc2)c2cc(Cl)ccc21` (centres unmarked) [Bz-423], the “mechanism of inhibition of ATP hydrolysis” value in assay [1] is listed as “uncompetitive”. Moreover, the Ki in assay [1] (binding when all three sites have substrate bound, read-out: Ki*) is 18.9 ± 6.3 µM; in assay [1] (setting [2]) it was “no fit”. Also, the values for the Km in assay [1] (competitive inhibition model) and in assay [1] (uncompetitive inhibition model) were 400 ± 100 µM and 680 ± 100 µM, respectively. Also, the Vmax in assay [1] (competitive inhibition model) was found to be 2.62 ± 0.9; in assay [1] (setting [3]), 3.37 ± 1.4; in assay [1] (uncompetitive inhibition model), 3.34 ± 1.3.

On to `CC[C@H]1/C=C/C=C/C[C@@H](C)[C@H](O)[C@@](C)(O)C(=O)[C@@H](C)[C@H](O)[C@@H](C)C(=O)[C@@H](C)[C@H](O)[C@@H](C)/C=C/C(=O)O[C@@H]2[C@H](C)[C@H](CC1)O[C@]1(CC[C@H](C)[C@H](C[C@@H](C)O)O1)[C@H]2C` [oligomycin], for which, on F1Fo-ATPase, the IC50 is 0.01 µM and the “mode of inhibition of the F1Fo-ATPase” value was “non-competitive”.

Consider `COC[C@@H](C[C@H]1O[C@@](O)([C@H](O)[C@@H]2C[C@H](OC)[C@@H](O)CC/C=C(C)/C=C/[C@@H](O[C@@H]3O[C@@H](C)[C@H](OC)[C@@H](O)[C@@H]3O)[C@H](C)/C=C(C)/C=C(C)/C=C(\C)C(=O)O2)[C@H](C)[C@@H](O)[C@H]1C)OC1C[C@](C)(O)[C@@H](O[C@H]2C[C@@H](OC)[C@H](O)[C@@H](C)O2)[C@H](C)O1` (some centres unmarked) [apoptolidin], for which the “mode of inhibition of the F1Fo-ATPase” value with F1Fo-ATPase was “non-competitive”.

Take `CN1C(=O)C(Cc2ccc(OC(C)(C)C)cc2)N=C(c2ccc(O)cc2)c2cc(Cl)ccc21` (centres unmarked) [o-tert-Butyl]: the “mechanism of inhibition of ATP hydrolysis” value in assay [1] was “uncompetitive”. In addition, in assay [1] (setting [2]), the Ki entry is recorded as “no fit”. In assay [1] (secondary plot [Bz] versus Km, [Bz] 1-8 μM), the “effect on apparent Km” value was “decreased”. In assay [1] (secondary plot [Bz] versus Vmax, [Bz] 1-8 μM), the “effect on apparent Vmax” value is “decreased”. The Michaelis-Menten constant (Km) amounted to 250 ± 20 µM in assay [1] (competitive inhibition model) and 390 ± 300 µM in assay [1] (uncompetitive inhibition model). Moreover, the Vmax is given as 1.25 ± .01 in assay [1] (competitive inhibition model), 1.53 ± .03 in assay [1] (setting [3]) and 1.53 ± 0.03 in assay [1] (uncompetitive inhibition model).

These data come from patent publication US20080293700A1, “Compositions and Methods Relating to Novel Compounds and Targets Thereof” (priority 2004, published 2008).
